Experimental data reported in patent publication US20230242474A1, “LIPID COMPOUND AND THE COMPOSITION THEREOF” (GUANGZHOU RIBOBIO CO., LTD, priority 2020, published 2023).
“And” between values parts separate entries of the source, which are not always exact repeats. Equal values may be shown once. Read-outs that look alike come from different tables or passages of the source.

Experiments:
[1] = format: physicochemical
[2] = test system: T lymphocytes secreting INFγ; test: ELISPOT count of T lymphocytes secreting INFγ after immunization with LNP-encapsulated SARS-CoV-2 S protein mRNA; format: in vivo, BALB/c mice; conditions: S protein (1 μg) stimulation, intramuscular Day 0 and Day 14, spleens after 7 days
[3] = test system: S protein specific IgG antibody; format: in vivo, BALB/c mice; conditions: 14 days after the second immunization, LNP with S protein mRNA, FIG. 5
[4] = test system: BALB/c mice; test: Transfection efficiency: in vivo bioluminescence of luciferase mRNA encapsulated by different LNP; conditions: for Average fluorescence intensity, Leg (intramuscular injection) / Average fluorescence intensity, Liver (tail vein injection): 10 μg/mice; for Total photons number, Leg: intramuscular injection
Method: All animals were kept in adaptive feeding for more than 7 days before experiments, free to uptake food and drink water during experimental period, illumination 12/12 h alternating light and dark, room temperature was 20-26° C., humidity was 40-70%.
Experimental method: female BALB/c mice, encapsulated luciferase mRNA with different LNP by four different administrations which included subcutaneous injection (under the armpit), tail vein injection, intraperitoneal injection, intramuscular injection (the tibialis anterior muscle of mouse hind leg); 3, 6, 24, 48 h after administration, applied in vivo fluorescence imaging system (brand: Bruker, model: XTREME) for bioluminescence detection, the specific steps were as follows: substrate preparation: took appropriate amount of substrate Luciferin (brand: Promega) and added saline to make a 10 mg/ml solution, avoided light, injected 100 μl solution into each mouse intraperitoneally. […] Put the anesthetized mouse into machine, set the bioluminescence setting and took the photos, captured the photograph and then adjusted the upper and lower values of photograph, then collected data on the concentrated distribution of fluorescence (e.g., fluorescence intensity, average photons number, and total photons number) and processed data. Statistical analysis: the in vivo imaging outcome were shown in the fluorescence intensity or average of total photons number of different animal in the same tested group, which were used to judge whether the fluorescence intensity or total photon number of luciferase mRNA encapsulated by different LNP were high or low.
The fluorescence intensity and total photons number reflects the transfection efficiency of LNP, the value is higher, referring to the efficiency of delivering encapsulated substance into cell by LNP is higher.

[5] = test system: Wistar rats; test: Safety evaluation of LNP: acute toxicity test in rat; format: in vivo; parameters: key to Histopathological result, Muscle tissue / Histopathological result, Heart / Histopathological result, Liver / Histopathological result, Kidney / Histopathological result, Spleen / Histopathological result, Thymus / Histopathological result, Lymph nodes / Histopathological result, Pancreas: ″—″ means no abnormality
Method: Wistar rats including 4 males and 4 females, with a weight difference of no more than 10%, were selected and randomly divided into two groups: solvent control group and tested substance group. The concentration used in the measurement was 2 mg/mL. Each animal was administered 3 times a day with the volume of each injection as 250 μl. The administration interval was 4 hours. Alternate administration to the left and right legs were performed. The total dosage level was 1.50 mg per rat, which was equivalent to 1200 times the maximum unit weight dosage level for human (assuming the maximum dosage level for human is 0.25 mg). Clinical observation was recorded as follows. Within 24 hours after administration, clinical observation was carried out every hour. Within 24-72 hours after administration, clinical observation was carried out once every 6 hours. Within 4-14 days after administration, clinical observation was carried out once a day. The symptoms of toxicity, the time when the symptoms appeared and disappeared, and the time of death (if occurred) were recorded. Body weight was recorded once a day after administration, and food intake was recorded every 2 days after administration. 14 days after the administration, all the remaining animals were weighed, then euthanized, and major organs were obtained by anatomy. Heart, liver, spleen, lung, kidney, thymus, lymph node, were weighted and relative organ weight (the organ weight/the subject weight×100%; also known as organ coefficient) was calculated. After anatomy, the heart, liver, spleen, lung, kidney, intestine, thymus, lymph node, muscle tissue at the injection site and other organs with pathological changes observed were stored in a fixation solution, and the pathology of each organ was examined by H&E staining. Lesion severity scores were given according to the table below.
Specifically, the body weight of male rats in the solvent control group continued to increase. […] The food intake per rat in the solvent control group within 24 hours was stable, within a range of 18-35 grams.

[6] = LNP with SARS-CoV-2 S protein mRNA, Table 9
[7] = lipid nanoparticle of the ionizable lipid (ionizable lipid/phospholipid/PEG lipid/structural lipid 50/10/1.5/38.5 %) with mRNA, Table 1
[8] = lipid nanoparticle of the ionizable lipid with mRNA, Table 1
[9] = H&E, day 14, 1.50 mg per rat, animals 1001 and 1101
[10] = empty LNP, 1.50 mg per rat i.m., day 14, average of male, female rat
[11] = empty LNP, 1.50 mg per rat, day 14
[12] = LNP empty vector used in the rat safety study, Table 5

SMILES: CCCCC/C=C/C/C=C/CCCCCCCCN(CCCO)CCCCCCCC(=O)OC(CCCCCCCC)CCCCCCCC [A7]
- Encapsulated percentage (%) [1, 6]: 97%
- PI [1, 6]: 0.060
- Size (nm) [1, 6]: 79 nm
- Size (nm) [1, 7]: 105.1 nm
- Encapsulated percentage (%) [1, 8]: 94.63%
- PDI [1, 8]: 0.175
- Elispot counted T lymphocytes secreting INFγ ([2]; dose 50 μg): 805 and 700
- S protein specific IgG antibody titer [3]: higher titers of IgG antibodies
- Average fluorescence intensity, Leg (intramuscular injection) ([4]; 3 h after administration): 1683.2
- Average fluorescence intensity, Liver (tail vein injection) ([4]; 3 h after administration): 21013.1
- Average fluorescence intensity, Leg (intramuscular injection) ([4]; 6 h after administration): 2990.1
- Average fluorescence intensity, Liver (tail vein injection) ([4]; 6 h after administration): 21315.5
- Average fluorescence intensity, Leg (intramuscular injection) ([4]; 24 h after administration): 1436.4
- Average fluorescence intensity, Liver (tail vein injection) ([4]; 24 h after administration): 444.2

SMILES: CCCCCCOCC(COCCCCCC)OC(=O)CCCCCCCN(CCO)CCCCCCCC(=O)OC(COCCCCCC)COCCCCCC [A18]
- Overall pathological changes after the 1200 times higher dosage level of the LNP injection ([5]; 1.50 mg per rat, 1200 times the maximum unit weight dosage level for human): only slight pathological changes in the lungs and legs
- Histopathological result, Heart [5, 9]: —
- Histopathological result, Kidney [5, 9]: —
- Histopathological result, Liver [5, 9]: —
- Histopathological result, Lymph nodes [5, 9]: —
- Histopathological result, Pancreas [5, 9]: —
- Histopathological result, Spleen [5, 9]: —
- Histopathological result, Thymus [5, 9]: —
- Histopathological result, Lung ([5]; H&E, day 14, 1.50 mg per rat, animals 1001 and 1101, cell wraps over three grid rows: Partial stromal cell hyperplasia): Partial
- Histopathological result, Muscle tissue ([5]; H&E, day 14, 1.50 mg per rat, injection site, animals 1001 and 1101): —
- Body weight change of rats ([5]; empty LNP, 1.50 mg per rat i.m., 14 days, FIGS. 1-2): dropped initially, then recovered to the pre-administration level on Day 4-Day 6, and continued to increase subsequently
- Food intake change of rats ([5]; empty LNP, 1.50 mg per rat i.m., 14 days, FIGS. 3-4): decreased initially, and returned to normal levels on Day 4-Day 7
- Relative organ weight, Brain [5, 10]: 0.687
- Relative organ weight, Kidney left [5, 10]: 0.351
- Relative organ weight, Kidney right [5, 10]: 0.356
- Relative organ weight, Liver [5, 10]: 3.773
- Relative organ weight, Lung [5, 10]: 0.413
- Relative organ weight, Lymph nodes [5, 10]: 0.006
- Relative organ weight, Spleen [5, 10]: 0.250
- Relative organ weight, Thymus [5, 10]: 0.149
- Relative organ weight, Heart ([5]; empty LNP, 1.50 mg per rat i.m., day 14, organ weight/subject weight×100%, average of male, female rat): 0.308
- Heart, liver, kidney, spleen, thymus and lymph node coefficients compared with the solvent control group [5, 11]: did not show significant difference
- Pathological change in the lung [5, 11]: proliferation of partial interstitial cells in the lung
- Pathological change in the muscle tissue [5, 11]: a small amount of inflammatory cell infiltration in the muscle tissue
- Pathological changes of heart, liver, kidney, spleen, thymus, and lymph nodes ([5]; empty LNP, 1.50 mg per rat, day 14, compared with solvent control): no pathological changes
- PDI [1, 12]: 0.088
- Size (nm) [1, 12]: 147 nm
- Encapsulated percentage (%) [1, 6]: 94%
- PI [1, 6]: 0.075
- Size (nm) [1, 6]: 86 nm
- Size (nm) [1, 7]: 104.8 nm
- Encapsulated percentage (%) [1, 8]: 93.58%
- PDI [1, 8]: 0.0835
- Elispot counted T lymphocytes secreting INFγ ([2]; dose 5 μg): 161 and 153
- Elispot counted T lymphocytes secreting INFγ ([2]; dose 20 μg): 241 and 251
- S protein specific IgG antibody titer [3]: higher titers of IgG antibodies
- Total photons number, Leg ([4]; 1 μg/ mice, 3 h): 3.91E+09
- Total photons number, Leg ([4]; 1 μg/ mice, 6 h): 4.16E+09
- Total photons number, Leg ([4]; 1 μg/ mice, 24 h): 2.90E+08

SMILES: CCCCCCCCC(CCCCCCCC)OC(=O)CCCCCCCN(CCO)CCCCCCCC(=O)OC(CCCCCCCC)CCCCCCCC [A2, reference compound]
- Size (nm) [1, 7]: 145.5 nm
- Encapsulated percentage (%) [1, 8]: 87.86%
- PDI [1, 8]: 0.100
- Average fluorescence intensity, Leg (intramuscular injection) ([4]; 3 h after administration): 1146
- Average fluorescence intensity, Liver (tail vein injection) ([4]; 3 h after administration): 5325.2
- Average fluorescence intensity, Leg (intramuscular injection) ([4]; 6 h after administration): 1208.2
- Average fluorescence intensity, Liver (tail vein injection) ([4]; 6 h after administration): 5934.7
- Average fluorescence intensity, Leg (intramuscular injection) ([4]; 24 h after administration): 377.7
- Average fluorescence intensity, Liver (tail vein injection) ([4]; 24 h after administration): 162.6

SMILES: CCCCC/C=C/C/C=C/CCCCCCCCN(CCCO)CCCCCC(=O)OCCCCCCCCCCC [A12]
- Size (nm) [1, 7]: 119.3 nm
- Encapsulated percentage (%) [1, 8]: 86.53%
- PDI [1, 8]: 0.083
- Total photons number, Leg ([4]; 1 μg/ mice, 6 h): 6.91E+08

SMILES: CCCCC/C=C/C/C=C/CCCCCCCCN(CCCO)CCCCCCCC(=O)OCC(COCCCCCC)(COCCCCCC)COCCCCCC [A21]
- Size (nm) [1, 7]: 78.3 nm
- Encapsulated percentage (%) [1, 8]: 97.20%
- PDI [1, 8]: 0.098
- Total photons number, Leg ([4]; 5 μg/mice, 3 h): 9.07E+08
- Total photons number, Leg ([4]; 5 μg/mice, 6 h): 7.11E+08
- Total photons number, Leg ([4]; 5 μg/mice, 24 h): 1.62E+08

SMILES: CCCCCCCCCCCOC(=O)CCCCCN(CCO)CCCCCCCC(=O)OC(CCCCCCCC)CCCCCCCC [A33, reference compound]
- Encapsulated percentage (%) [1, 6]: 95%
- PI [1, 6]: 0.104
- Size (nm) [1, 6]: 76 nm
- Elispot counted T lymphocytes secreting INFγ ([2]; dose 4 μg): 32 and 42
- Elispot counted T lymphocytes secreting INFγ ([2]; dose 50 μg): 310 and 338
- S protein specific IgG antibody titer [3]: higher titers of IgG antibodies
- Average fluorescence intensity, Leg (intramuscular injection) ([4]; 3 h after administration): 1065.5
- Average fluorescence intensity, Liver (tail vein injection) ([4]; 3 h after administration): 2841.8
- Average fluorescence intensity, Leg (intramuscular injection) ([4]; 6 h after administration): 1117.9
- Average fluorescence intensity, Liver (tail vein injection) ([4]; 6 h after administration): 3144.6
- Average fluorescence intensity, Leg (intramuscular injection) ([4]; 24 h after administration): 418.8
- Average fluorescence intensity, Liver (tail vein injection) ([4]; 24 h after administration): 100.0
- Total photons number, Leg ([4]; 1 μg/ mice, 3 h): 1.41E+08
- Total photons number, Leg ([4]; 1 μg/ mice, 6 h): 2.35E+08
- Total photons number, Leg ([4]; 1 μg/ mice, 24 h): 5.84E+07
- Total photons number, Leg ([4]; 5 μg/mice, 3 h): 5.20E+08
- Total photons number, Leg ([4]; 5 μg/mice, 6 h): 4.62E+08
- Total photons number, Leg ([4]; 5 μg/mice, 24 h): 1.63E+08

SMILES: CCCCC/C=C/C/C=C/CCCCCCCCN(CCO)CCCCCCCC(=O)OC(CCCCCCCC)CCCCCCCC [A8, reference compound]
- Size (nm) [1, 7]: 142.2 nm
- Encapsulated percentage (%) [1, 8]: 76.10%
- PDI [1, 8]: 0.120
- Average fluorescence intensity, Leg (intramuscular injection) ([4]; 3 h after administration): 1111
- Average fluorescence intensity, Liver (tail vein injection) ([4]; 3 h after administration): 6850.3
- Average fluorescence intensity, Leg (intramuscular injection) ([4]; 6 h after administration): 2161.8
- Average fluorescence intensity, Liver (tail vein injection) ([4]; 6 h after administration): 10174.4
- Average fluorescence intensity, Leg (intramuscular injection) ([4]; 24 h after administration): 1294.9
- Average fluorescence intensity, Liver (tail vein injection) ([4]; 24 h after administration): 220.8
